These results are taken from patent US11059815B2, “Synthesis of small molecule histone deacetylase 6 degraders, compounds formed thereby, and pharmaceutical compositions containing them” (Wisconsin Alumni Research Foundation, priority 2018, dated 2021).

This test concerns the target T1, HDAC6 (Homo sapiens, UniProt Q9UBN7).
T1 construct: endogenous in cells; host or cells: MM1S (ATCC CRL-2974)
T1 sequence (Q9UBN7 1-1215): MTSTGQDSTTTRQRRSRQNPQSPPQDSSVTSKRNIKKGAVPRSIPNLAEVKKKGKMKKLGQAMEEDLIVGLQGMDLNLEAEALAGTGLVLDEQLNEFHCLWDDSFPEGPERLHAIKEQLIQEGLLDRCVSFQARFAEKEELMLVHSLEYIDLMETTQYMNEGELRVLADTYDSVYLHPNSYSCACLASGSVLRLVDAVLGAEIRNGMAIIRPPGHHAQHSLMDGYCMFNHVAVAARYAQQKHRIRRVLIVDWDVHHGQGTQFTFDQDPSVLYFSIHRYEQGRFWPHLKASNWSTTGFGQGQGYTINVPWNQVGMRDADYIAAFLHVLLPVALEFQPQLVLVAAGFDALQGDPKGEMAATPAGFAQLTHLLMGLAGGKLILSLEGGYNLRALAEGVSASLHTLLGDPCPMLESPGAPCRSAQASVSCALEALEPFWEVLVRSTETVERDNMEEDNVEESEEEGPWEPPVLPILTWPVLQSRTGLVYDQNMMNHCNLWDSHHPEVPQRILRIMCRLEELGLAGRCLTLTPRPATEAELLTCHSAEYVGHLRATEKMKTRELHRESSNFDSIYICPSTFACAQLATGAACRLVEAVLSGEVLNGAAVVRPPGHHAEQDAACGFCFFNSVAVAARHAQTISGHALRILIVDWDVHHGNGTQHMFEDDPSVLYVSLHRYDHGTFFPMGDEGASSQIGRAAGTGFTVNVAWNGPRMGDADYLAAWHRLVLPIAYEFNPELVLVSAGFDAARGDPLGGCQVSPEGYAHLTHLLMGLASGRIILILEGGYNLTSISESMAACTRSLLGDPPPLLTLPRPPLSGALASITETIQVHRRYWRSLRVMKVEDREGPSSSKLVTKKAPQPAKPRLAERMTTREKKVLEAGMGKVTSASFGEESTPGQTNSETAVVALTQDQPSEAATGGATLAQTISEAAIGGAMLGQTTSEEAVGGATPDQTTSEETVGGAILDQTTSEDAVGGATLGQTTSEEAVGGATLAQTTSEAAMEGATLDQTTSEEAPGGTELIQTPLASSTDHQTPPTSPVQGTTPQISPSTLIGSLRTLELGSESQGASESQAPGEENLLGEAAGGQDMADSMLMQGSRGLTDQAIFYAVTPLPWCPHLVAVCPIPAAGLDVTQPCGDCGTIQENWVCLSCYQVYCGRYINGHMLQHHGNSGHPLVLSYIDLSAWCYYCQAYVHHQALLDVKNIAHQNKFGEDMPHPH
Put plainly: In-cell ELISA of HDAC6 protein level in MM1S cells. In kind it is cell-based. To be noted: 6 h, 100% minus mean (± SD) relative HDAC6 expression; for inhibition at 0.01 µM / inhibition at 0.1 µM: MM1.S; for inhibition at 0.01 µM: n=3, read-out: Degradation (%) 10 nM; for inhibition at 0.1 µM: n=3, read-out: Degradation (%) 100 nM. How it is done: FIG. 9 is a histogram depicting the results of screening of compounds for HDAC6 degradation activity by in-cell ELISA. MM1S cells were treated with compounds at 100 nM (blue bars) or 10 nM (red bars) for 6 h. Data was normalized to vehicle (DMSO)-treated group and the bar graph represents as mean of relative HDAC6 protein level (n=3) with ±SD as error bar. Statistical significance was analyzed by one-way ANOVA. Not significant (ns) P>0.05, *P≤0.05, **P≤0.01, ***P≤0.001, ****P≤0.0001.
FIG. 11 is a graph depicting dose response of selected degrader candidates. MM1S cells were treated for 6 h and analyzed by in-cell ELISA. Data was normalized to vehicle (DMSO)-treated group and dot plot represented as mean relative expression (n=3) with ±SD as error bar. Nonlinear fitting of inhibitor concentration vs. response (three parameters) was generated by GraphPad Prism with R2 from 0.97 to 0.99.
FIG. 15 is a histogram depicting relative HDAC6 expression as a function of linker length for compounds 3a through 3k as described in the Examples section, Part 2. Human MM1S cells were treated with 100 nM degraders for 6 hours and analyzed by in-cell ELISA assay.
FIG. 17 is a dose-response curve for degraders 3j (n=1), 3k (n=12) and 2, at concentrations from 1 nM to 300 nM for 4 h in MM1S. See the Examples, Part 2.
To screen the new series of degraders, an in-cell ELISA assay was developed and validated. The compounds were treated at 100 nM and 10 nM in MM1S cells for 6 h. Resulting cells were then fixed and analyzed by in-cell ELISA. […] Degraders including 1 at 100 nM degraded 73.5% to 85.0% of HDAC6 with minor difference. At 10 nM concentration of compounds, obvious structure-activity-relationship (SAR) was observed. […] For example, 12d, 12h, 12i, 12o and 12p all achieved about 70% degradation. Among the C4-linked series, 12d with medium length linker (5+1) achieved most degradation in sub-series 12a-e (m=1). […] Among C5-linked series, the potency of sub-series 12l-p (m=1) increased with the linker length. […] It appeared that both the distance and linking positions contributed to the degradation efficiency. The rigid triazole ring in the middle of the linker likely modulated the plasticity of degrader-bridged ternary complex.
The amount of cellular HDAC6 was measured in response to concentrations of compounds from 0.1 nM to 1 μM. […] The new degraders had single-digit nanomolar DC50, which was about 3 to 5 fold of improvement from 9.12 nM of degrader 1. […] As discussed above, most PROTACs were designed to avoid degrading other proteins except the targeted POIs. However, in these studies, it was hypothesized that HDAC6 degraders with IKZF degradation will have enhanced anti-proliferation effect MM1S cells.
MM1S cells were harvested and plated with 5×10^5 cells in 100 μL media per well 96-wells plate. After overnight seeding, 25 μL media containing 5× dosing concentration of the compounds or vehicle was added to each well. After 6-hour treatment at 37° C. in a humidified 5% CO2 atmosphere, cells were fixed by adding 125 μL 8% formaldehyde in TBS buffer (137 mM NaCl, 25 mM Tris, 2.7 mM potassium chloride, pH 7.6) and incubated at room temperature (RT) for 15 minutes. Removal of fixing solution was followed by once rinse and twice washes with TBS-T washing buffer (137 mM NaCl, 20 mM Tris, 0.1% Tween, pH 7.6). Cells were then permeabilized by adding 100 μL 0.1% Triton-X in TBS and incubated at RT for 15 minutes. Removal of permeabilizing solution was followed by once rinse and once wash with TBS-T. Cellular endogenous peroxidases were quenched by adding 100 μL 1% H2O2 in TBS and incubation at RT for 20 minutes. Removal of quenching solution was followed by once rinse and once wash with TBS-T. Non-specific binding sites were blocked by adding […] 5% BSA in TBS-T (with 0.02% NaN3) and incubation at 4° C. overnight. […]

With `CCCCN(Cc1ccc(C(=O)NO)cc1)C(=O)Nc1ccc(OCCCCCCn2cc(CNc3ccc4c(c3)C(=O)N(C3CCC(=O)NC3=O)C4=O)nn2)cc1` (stereo not drawn) [Compound 12p, 4-((1-butyl-3-(4-((6-(4-(((2-(2,6-dioxopiperidin-3-yl)-1,3-dioxoisoindolin-5-yl)amino)methyl)-1H-1,2,3-triazol-1-yl)hexyl)oxy)phenyl)ureido)methyl)-N-hydroxybenzamide], for the setting “10 nM”, the inhibition at 0.01 µM was around 70%. Besides, the inhibition at 0.1 µM (100 nM) stood at 83.5 ± 0.5%.
For the compound `CCCCN(Cc1ccc(C(=O)NO)cc1)C(=O)Nc1ccc(OCCCCn2cc(CCNc3cccc4c3C(=O)N(C3CCC(=O)NC3=O)C4=O)nn2)cc1` (stereo not drawn) [Compound 12h, 4-((1-butyl-3-(4-(4-(4-(2-((2-(2,6-dioxopiperidin-3-yl)-1,3-dioxoisoindolin-4-yl)amino)ethyl)-1H-1,2,3-triazol-1-yl)butoxy)phenyl)ureido)methyl)-N-hydroxybenzamide], for the setting “10 nM”, the inhibition at 0.01 µM was around 70%. For the same compound, under “100 nM”, the inhibition at 0.1 µM amounted to 79.2 ± 0.9%.
The like results for `CCCCN(Cc1ccc(C(=O)NO)cc1)C(=O)Nc1ccc(OCCCn2cc(CCCNc3ccc4c(c3)C(=O)N(C3CCC(=O)NC3=O)C4=O)nn2)cc1` (stereo not drawn) [Compound 12r, 4-((1-butyl-3-(4-(3-(4-(3-((2-(2,6-dioxopiperidin-3-yl)-1,3-dioxoisoindolin-5-yl)amino)propyl)-1H-1,2,3-triazol-1-yl)propoxy)phenyl)ureido)methyl)-N-hydroxybenzamide] were, in that order, 60.9 ± 0.4% and 81.9 ± 0.4%.
`CCCCN(Cc1ccc(C(=O)NO)cc1)C(=O)Nc1ccc(OCCCn2cc(CCNc3cccc4c3C(=O)N(C3CCC(=O)NC3=O)C4=O)nn2)cc1` (stereo not drawn) [Compound 12g, 4-((1-butyl-3-(4-(3-(4-(2-((2-(2,6-dioxopiperidin-3-yl)-1,3-dioxoisoindolin-4-yl)amino)ethyl)-1H-1,2,3-triazol-1-yl)propoxy)phenyl)ureido)methyl)-N-hydroxybenzamide]: the inhibition at 0.01 µM (10 nM) is 64.8 ± 1%. In addition, under “100 nM”, the inhibition at 0.1 µM stood at 84.2 ± 0.4%.
Regarding `CCCCN(Cc1ccc(C(=O)NO)cc1)C(=O)Nc1ccc(OCCCCn2cc(CNc3cccc4c3C(=O)N(C3CCC(=O)NC3=O)C4=O)nn2)cc1` (stereo not drawn) [Compound 12n, 4-((1-butyl-3-(4-(4-(4-(((2-(2,6-dioxopiperidin-3-yl)-1,3-dioxoisoindolin-4-yl)amino)methyl)-1H-1,2,3-triazol-1-yl)butoxy)phenyl)ureido)methyl)-N-hydroxybenzamide], under “10 nM, n=3”, the “Degradation (%) 10 nM” value was determined as 63.3 ± 0.8%. For the same compound, where the note is “100 nM, n=3”, the “Degradation (%) 100 nM” value was found to be 80.9 ± 0.4%.
As to `CCCCN(Cc1ccc(C(=O)NO)cc1)C(=O)Nc1ccc(OCCCn2cc(CNc3cccc4c3C(=O)N(C3CCC(=O)NC3=O)C4=O)nn2)cc1` (stereo not drawn) [Compound 12b, 4-((1-butyl-3-(4-(3-(4-(((2-(2,6-dioxopiperidin-3-yl)-1,3-dioxoisoindolin-4-yl)amino)methyl)-1H-1,2,3-triazol-1-yl)propoxy)phenyl)ureido)methyl)-N-hydroxybenzamide], the inhibition at 0.01 µM (10 nM) was 67.3 ± 0.8%. In addition, the inhibition at 0.1 µM (100 nM) is 84.1%.
